From ChEMBL document CHEMBL3045819, “Potent limonoid insect antifeedant from Melia azedarach” (2002) come the findings set out here.

Common to all, as to format: functional
Test [1] concerns Epilachna. Kind of test: Antifeedant activity against larvae of Epilachna paenulata in Cucurbita maxima leaves at 4 ug/cm2 after 24 hr by leaf disc choice test.
The test system of test [2] is Spodoptera eridania. The test can be described thus: Antifeedant activity against larvae of Spodoptera eridania in Cucurbita maxima leaves at 1 ug/cm2 after 24 hr by leaf disk choice test.
Test [3] has as its system Spodoptera eridania. Kind of test: Antifeedant activity against larvae of Spodoptera eridania in Cucurbita maxima leaves at 4 ug/cm2 after 24 hr by leaf disk choice test.
Test [4] has as its system Epilachna. The test can be described thus: Antifeedant activity against larvae of Epilachna paenulata in Cucurbita maxima leaves at 1 ug/cm2 after 24 hr by leaf disc choice test.
Test [5] has as its system Epilachna. Kind of test: Antifeedant activity against larvae of Epilachna paenulata in Cucurbita maxima leaves at 0.5 ug/cm2 after 24 hr by leaf disc choice test.
The subject of test [6] is Spodoptera eridania. The test can be described thus: Antifeedant activity against larvae of Spodoptera eridania in Cucurbita maxima leaves at 0.25 ug/cm2 after 24 hr by leaf disk choice test.
In test [7] the test system is Spodoptera eridania. The test can be described thus: Antifeedant activity against larvae of Spodoptera eridania in Cucurbita maxima leaves at 0.5 ug/cm2 after 24 hr by leaf disk choice test.
Test [8] concerns Epilachna. The test can be described thus: Antifeedant activity against larvae of Epilachna paenulata in Cucurbita maxima leaves at 8 ug/cm2 after 24 hr by leaf disc choice test.
The subject of test [9] is Spodoptera eridania. The test can be described thus: Antifeedant activity against larvae of Spodoptera eridania in Cucurbita maxima leaves at 10 ug/cm2 after 24 hr by leaf disk choice test.
Test [10] has as its system Epilachna. The test can be described thus: Antifeedant activity against larvae of Epilachna paenulata in Cucurbita maxima leaves at 10 ug/cm2 after 24 hr by leaf disc choice test.
The test system of test [11] is Spodoptera eridania. Kind of test: Antifeedant activity against larvae of Spodoptera eridania in Cucurbita maxima leaves at 14 ug/cm2 after 24 hr by leaf disk choice test.

For the molecule `CC(=O)O[C@@H]1C[C@H](O)[C@@]23CO[C@H](O)[C@]1(C)[C@@H]2C[C@@H](O)[C@]1(C)[C@@H]3C(=O)[C@H](O)[C@@]2(C)[C@H](c3ccoc3)C[C@H]3O[C@@]321` [12-HYDROXYAMOORASTATIN], the AFI in test [1] came out at 96.1%; in [2], 91.2%; in test [3] it was 95.5%; in [4], 52.1%; in test [5], 36.4%; in [6], 35.5%. Further, the AFI in [7] came out at 57.5%.

For `C/C=C(\C)C(=O)O[C@H]1C[C@@H](OC(C)=O)[C@@]2(C(=O)OC)CO[C@H]3[C@@H](O)[C@@](C)([C@]45O[C@@]4(C)[C@@H]4C[C@H]5O[C@@H]5OC=C[C@@]54O)[C@H]4[C@]1(CO[C@]4(O)C(=O)OC)[C@@H]32` [AZADIRACHTIN A], the AFI is listed as 97.6% in test [1]; 94.2% in [2]; 94% in test [3]; 62.2% in [4]; 35.7% in [5]; 57.3% in [6]. Moreover, the AFI in [7] was found to be 91.2%.

Regarding `CC(=O)O[C@@H]1C[C@H](O)[C@@]23CO[C@@H](O)[C@]1(C)[C@@H]2C[C@@H](O)[C@]1(C)[C@@H]3C(=O)[C@H](OC(C)=O)[C@@]2(C)[C@H](c3ccoc3)C[C@H]3O[C@]321` [TOOSENDANIN], the AFI in test [8] is 78.2%; in test [9], 79.3%; in [1] it was 54.8%; in [2], 65.1%; in test [3], 71.8%; in [10], 90.7%. The AFI in test [11] is 87.8%; in [6], 45.8%; in test [7] it was 58.7%.
